Like-named read-outs stand apart in the source and are kept apart here.
Legend:
human TLR7 = human TLR7 (Homo sapiens (Human), UniProt Q9NYK1); assay: TLR7 inhibition reporter assay (HEK-Blue cells, SEAP reporter, gardiquimod stimulation); assay type: cell-based
human TLR8 = human TLR8 (Homo sapiens (Human), UniProt Q9NR97); assay: TLR8 inhibition reporter assay (HEK-Blue cells, SEAP reporter, R848 stimulation);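 further: compounds tested from 0.05 nM to 50 µM, 22 h at 37 °C, SEAP measured with HEK-Blue Detection, inhibition relative to agonist plus DMSO versus a known inhibitor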
Sequence of human TLR8 (Q9NR97 27-1041): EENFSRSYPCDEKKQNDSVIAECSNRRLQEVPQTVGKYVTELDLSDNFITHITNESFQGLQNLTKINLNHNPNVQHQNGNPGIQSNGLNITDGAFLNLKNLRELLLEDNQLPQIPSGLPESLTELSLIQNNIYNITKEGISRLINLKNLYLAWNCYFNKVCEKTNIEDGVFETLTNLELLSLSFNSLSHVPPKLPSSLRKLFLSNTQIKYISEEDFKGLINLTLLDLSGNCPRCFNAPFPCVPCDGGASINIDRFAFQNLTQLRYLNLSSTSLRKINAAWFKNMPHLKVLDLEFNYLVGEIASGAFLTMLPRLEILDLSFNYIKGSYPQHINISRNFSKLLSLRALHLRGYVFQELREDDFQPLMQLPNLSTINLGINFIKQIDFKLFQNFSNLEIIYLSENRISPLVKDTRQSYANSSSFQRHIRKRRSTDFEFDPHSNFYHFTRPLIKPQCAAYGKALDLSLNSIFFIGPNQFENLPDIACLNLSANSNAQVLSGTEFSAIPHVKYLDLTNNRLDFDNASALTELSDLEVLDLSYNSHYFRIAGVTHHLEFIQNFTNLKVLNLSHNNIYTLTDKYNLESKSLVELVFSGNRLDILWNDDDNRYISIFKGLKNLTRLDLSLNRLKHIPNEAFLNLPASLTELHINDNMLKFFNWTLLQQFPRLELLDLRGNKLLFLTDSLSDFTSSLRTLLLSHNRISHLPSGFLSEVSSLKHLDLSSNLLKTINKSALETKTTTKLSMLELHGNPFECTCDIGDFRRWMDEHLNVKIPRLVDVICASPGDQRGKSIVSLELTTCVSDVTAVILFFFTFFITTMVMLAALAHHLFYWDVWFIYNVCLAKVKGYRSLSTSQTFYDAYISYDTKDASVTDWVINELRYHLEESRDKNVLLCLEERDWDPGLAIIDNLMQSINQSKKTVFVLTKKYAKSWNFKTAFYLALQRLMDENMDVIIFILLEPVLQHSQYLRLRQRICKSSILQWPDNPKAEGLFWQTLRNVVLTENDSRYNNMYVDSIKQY

human TLR9 = human TLR9 (Homo sapiens (Human), UniProt Q9NR96); assay: TLR9 inhibition reporter assay (HEK-Blue cells, SEAP reporter, ODN2006 stimulation);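 further: compounds tested over 0.05 nM to 50 µM, 22 h incubation, inhibition taken as SEAP signal drop from agonist plus DMSO wells toward a known inhibitor control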
Sequence of human TLR9 (Q9NR96 26-1032): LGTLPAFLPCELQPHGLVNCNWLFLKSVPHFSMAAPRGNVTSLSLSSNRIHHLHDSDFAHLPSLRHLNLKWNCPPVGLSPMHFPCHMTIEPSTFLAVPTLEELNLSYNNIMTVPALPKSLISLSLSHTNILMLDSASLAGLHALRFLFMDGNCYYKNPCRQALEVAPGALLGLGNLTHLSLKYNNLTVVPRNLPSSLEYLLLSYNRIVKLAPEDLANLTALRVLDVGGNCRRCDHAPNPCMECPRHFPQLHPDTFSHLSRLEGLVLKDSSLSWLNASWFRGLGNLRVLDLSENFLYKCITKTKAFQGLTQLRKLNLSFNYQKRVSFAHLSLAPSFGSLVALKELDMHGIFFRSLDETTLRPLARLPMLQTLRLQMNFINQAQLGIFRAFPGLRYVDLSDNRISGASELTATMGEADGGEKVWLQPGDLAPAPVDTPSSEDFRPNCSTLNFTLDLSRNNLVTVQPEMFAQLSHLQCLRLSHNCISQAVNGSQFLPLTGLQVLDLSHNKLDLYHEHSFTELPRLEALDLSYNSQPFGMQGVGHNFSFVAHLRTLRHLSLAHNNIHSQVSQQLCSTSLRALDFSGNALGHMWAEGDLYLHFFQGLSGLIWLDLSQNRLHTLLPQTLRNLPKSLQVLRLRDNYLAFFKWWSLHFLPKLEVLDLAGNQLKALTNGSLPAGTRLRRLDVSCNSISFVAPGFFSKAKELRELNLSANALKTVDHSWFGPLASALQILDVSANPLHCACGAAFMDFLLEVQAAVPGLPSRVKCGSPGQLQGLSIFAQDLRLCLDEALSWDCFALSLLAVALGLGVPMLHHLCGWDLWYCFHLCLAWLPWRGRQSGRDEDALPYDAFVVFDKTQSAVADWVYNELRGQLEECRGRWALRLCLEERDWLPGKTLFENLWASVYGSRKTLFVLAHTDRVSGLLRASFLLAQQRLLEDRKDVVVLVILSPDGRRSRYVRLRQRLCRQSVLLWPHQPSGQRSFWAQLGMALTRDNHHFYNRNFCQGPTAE

[1] = HEK-Blue cells, gardiquimod 7.5 μM
[2] = read-out: TLR8 IC50, HEK-Blue cells, R848 15.9 μM
[3] = read-out: TLR9 IC50, HEK-Blue cells, ODN2006 5 nM
[4] = HEK-Blue cells overexpressing human TLR7, gardiquimod 7.5 μM
[5] = read-out: TLR8 IC50, HEK-Blue cells overexpressing human TLR8, R848 15.9 μM
[6] = read-out: TLR9 IC50, HEK-Blue cells overexpressing human TLR9, ODN2006 5 nM

Sequence of human TLR7 (Q9NYK1 27-1049): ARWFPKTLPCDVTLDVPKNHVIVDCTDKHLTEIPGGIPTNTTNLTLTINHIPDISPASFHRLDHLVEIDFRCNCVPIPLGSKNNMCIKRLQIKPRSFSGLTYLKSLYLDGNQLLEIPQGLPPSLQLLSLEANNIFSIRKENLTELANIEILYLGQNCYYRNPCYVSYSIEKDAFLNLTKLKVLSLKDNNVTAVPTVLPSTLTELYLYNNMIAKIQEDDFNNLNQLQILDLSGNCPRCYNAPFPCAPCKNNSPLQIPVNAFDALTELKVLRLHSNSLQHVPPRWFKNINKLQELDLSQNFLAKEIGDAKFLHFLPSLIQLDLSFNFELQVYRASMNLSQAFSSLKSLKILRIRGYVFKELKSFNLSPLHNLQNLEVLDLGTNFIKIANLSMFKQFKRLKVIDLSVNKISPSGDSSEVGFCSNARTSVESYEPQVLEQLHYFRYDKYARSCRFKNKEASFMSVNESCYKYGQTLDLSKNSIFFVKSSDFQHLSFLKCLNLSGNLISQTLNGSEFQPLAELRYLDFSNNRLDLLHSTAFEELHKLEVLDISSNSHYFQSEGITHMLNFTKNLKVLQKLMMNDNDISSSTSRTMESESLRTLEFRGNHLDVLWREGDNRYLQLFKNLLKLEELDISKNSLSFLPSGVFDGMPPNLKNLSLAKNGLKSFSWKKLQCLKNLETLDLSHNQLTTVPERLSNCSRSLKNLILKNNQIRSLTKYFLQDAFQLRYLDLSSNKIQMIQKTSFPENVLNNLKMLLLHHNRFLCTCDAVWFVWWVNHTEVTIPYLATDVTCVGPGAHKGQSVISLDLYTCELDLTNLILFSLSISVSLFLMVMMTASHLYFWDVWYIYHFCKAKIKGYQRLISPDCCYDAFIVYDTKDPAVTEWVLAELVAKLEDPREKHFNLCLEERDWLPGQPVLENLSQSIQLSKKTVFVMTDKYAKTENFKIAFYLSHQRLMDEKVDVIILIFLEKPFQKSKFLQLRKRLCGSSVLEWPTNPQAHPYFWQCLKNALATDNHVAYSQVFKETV

Row | Compound | IC50 (human TLR7; [1]) | IC50 (human TLR8; [2]) | IC50 (human TLR9; [3]) | IC50 (human TLR7; [4]) | IC50 (human TLR8; [5]) | IC50 (human TLR9; [6])
1 | CC(=O)N1CCC(N2CCC(c3ccc4[nH]c(-c5ccnc(C)c5)c(C(C)C)c4c3)CC2)CC1 [Example 827, 1-(4-(3-isopropyl-2-(2-methylpyridin-4-yl)-1H-indol-5-yl)-[1,4′-bipiperidin]-1′-yl)ethan-1-one] | 12.7 nM | 5.2 nM | 753 nM |  |  | 
2 | Cc1cc(-c2[nH]c3ccc(C4CCN(C(=O)C5(C(N)=O)CC5)CC4)cc3c2C(C)C)cc(C)n1 [Example 133, 1-(4-(2-(2,6-dimethylpyridin-4-yl)-3-isopropyl-1H-indol-5-yl)piperidine-1-carbonyl)cyclopropane-1-carboxamide] |  |  |  | 12.4 nM | 61.7 nM | > 50000 nM
3 | CC(C)c1c(-c2ccnc(F)c2)[nH]c2ccc(C3CCN(C4CCN(C)CC4)CC3)cc12 [Example 523, 2-(2-fluoropyridin-4-yl)-3-isopropyl-5-(1′-methyl-[1,4′-bipiperidin]-4-yl)-1H-indole] |  |  |  | 25.8 nM | 25.5 nM | 503 nM
4 | Cc1cc(-c2[nH]c3ccc(C4CCN(C(=O)C5CC(=O)N(C)C5)CC4)cc3c2C(C)C)cc(F)n1 (stereo not drawn) [Example 502, 4-(4-(2-(2-fluoro-6-methylpyridin-4-yl)-3-isopropyl-1H-indol-5-yl)piperidine-1-carbonyl)-1-methylpyrrolidin-2-one] |  |  |  | 28.4 nM | 156 nM | 24700 nM
5 | CC(C)c1c(-c2ccncc2)[nH]c2ccc(C3CCN(C4CCN(C)CC4)CC3)cc12 [Example 525, 3-isopropyl-5-(1′-methyl-[1,4′-bipiperidin]-4-yl)-2-(pyridin-4-yl)-1H-indole] |  |  |  | 44.3 nM | 6 nM | 190 nM
6 | Cc1cc(-c2[nH]c3ccc(C4CC(C)(C)N(C)C(C)(C)C4)cc3c2C(C)C)cc(C)n1 [Example 496, 2-(2,6-dimethylpyridin-4-yl)-3-isopropyl-5-(1,2,2,6,6-pentamethylpiperidin-4-yl)-1H-indole] |  |  |  | 7190 nM | 9590 nM | > 50000 nM
7 | Cc1cc(-c2[nH]c3ccc(C4CCNCC4)cc3c2CC2CC2)ccn1 [Example 89, 3-(cyclopropylmethyl)-2-(2-methylpyridin-4-yl)-5-(piperidin-4-yl)-1H-indole] |  |  |  | 13.6 nM | 10.7 nM | 548 nM
8 | Cc1cc(-c2[nH]c3ccc(C4CCN(C(=O)C5CCOC5)CC4)cc3c2C(C)C)cc(C)n1 (stereo not drawn) [Example 199, (4-(2-(2,6-dimethylpyridin-4-yl)-3-isopropyl-1H-indol-5-yl)piperidin-1-yl)(tetrahydrofuran-3-yl)methanone] |  |  |  | 3.6 nM | 86.1 nM | 46600 nM
9 | Cc1cc(-c2[nH]c3ccc(C4CCN(C(=O)CN5CCCCC5)CC4)cc3c2C(C)C)cc(C)n1 [Example 351, 1-(4-(2-(2,6-dimethylpyridin-4-yl)-3-isopropyl-1H-indol-5-yl)piperidin-1-yl)-2-(piperidin-1-yl)ethan-1-one] |  |  |  | 3.1 nM | 7.3 nM | 559 nM
10 | CN[C@@H](C)C(=O)N1CCC(c2ccc3[nH]c(-c4cc(C)nc(C)c4)c(C(C)C)c3c2)CC1 [Example 191, (S)-1-(4-(2-(2,6-dimethylpyridin-4-yl)-3-isopropyl-1H-indol-5-yl)piperidin-1-yl)-2-(methylamino)propan-1-one] |  |  |  | 3.5 nM | 14.4 nM | 317 nM
11 | Cc1cc(-c2[nH]c3ccc(C4CCN(Cc5ccccn5)CC4)cc3c2C(C)C)cc(C)n1 [Example 431, 2-(2,6-dimethylpyridin-4-yl)-3-isopropyl-5-(1-(pyridin-2-ylmethyl)piperidin-4-yl)-1H-indole] |  |  |  | 8.4 nM | 6.7 nM | 457 nM
12 | Cc1cc(-c2[nH]c3ccc(C4CCN(CC(O)CO)CC4)cc3c2C(C)C)cc(C)n1 (stereo not drawn) [Example 854, 3-(4-(2-(2,6-dimethylpyridin-4-yl)-3-isopropyl-1H-indol-5-yl)piperidin-1-yl) propane-1,2-diol] | 1 nM | 1.8 nM | 159 nM |  |  | 

Source: patent publication US10660877B2 (BRISTOL-MYERS SQUIBB COMPANY, priority 2016, dated 2020)
